Measured values taken from patent US7175844B2, “Methods of modulating fibrosis” (Joslin Diabetes Center, Inc., priority 2000, dated 2007).
Where two headings read alike, the source gives them in different places.

Assays:
[1] = system: CTGF protein; assay: CTGF protein expression by Western blot analysis in BREC; assay type: cell-based, bovine; settings: for CTGF protein expression increase: VEGF 25 ng/ml, TGF-β1 10 ng/ml
Description: (§1) E) Western Blot Analysis—Immunoprecipitated proteins or 30 μg of total cell lysates were subjected to SDS-gel electrophoresis and electrotransferred to nitrocellulose membrane (Bio-Rad). The membrane was soaked in blocking buffer (phosphate-buffered saline containing 0.1% Tween 20 and 5% bovine serum albumin) for 1 h at room temperature and incubated with primary antibody overnight at 4° C. followed by incubation with horseradish peroxidase-conjugated secondary antibody (Amersham Pharmacia Biotech). Visualization was performed using the enhanced chemiluminescence detection system (ECL, Amersham Pharmacia Biotech) per the manufacturer's instructions.

[2] = system: CTGF mRNA; assay: CTGF mRNA expression by Northern blot analysis in BREC; assay type: cell-based, bovine; settings: for CTGF mRNA levels increase (comparative study): VEGF 25 ng/ml, TGF-β1 10 ng/ml
Description: (§2) Since BREC and BRPC may express both KDR and Flt1, we examined the effects of P1GF, a Flt1-specific ligand, on the induction of CTGF gene expression in vascular cells.
(§3) B) Cell Culture—Primary cultures of bovine retinal endothelial cells (BREC) and pericytes (BRPC) were isolated by homogenization and a series of filtration steps as described previously. BREC were subsequently cultured with endothelial cell basal medium supplemented with 10% plasma-derived horse serum, 50 mg/liter heparin, and 50 μg/ml endothelial cell growth factor. BRPC were cultured in Dulbecco's modified Eagle's medium with 5.5 mM glucose and 20% fetal bovine serum. Cells were cultured in 5% CO2 at 37° C., and media were changed every 3 days. Cells were characterized for their homogeneity by immunoreactivity with anti-factor VIII antibody for BREC and with monoclonal antibody 3G5 for BRPC. […] Only cells from passages 2 through 7 were used for the experiments.
(§4) H) Northern Blot Analysis—Total RNA was isolated using acid-guanidinium thiocyanate, and Northern blot analysis was performed. Total RNA (20 μg) was electrophoresed through 1% formaldehyde-agarose gels and then transferred to a nylon membrane. ^32P-Labeled cDNA probes were generated by use of labeling kits (Megaprime DNA labeling systems, Amersham Pharmacia Biotech). After ultraviolet cross-linking using a UV cross-linker (Stratagene, La Jolla, Calif.), blots were pre-hybridized, hybridized, and washed in 0.5×SSC, 5% SDS at 65° C. with 4 changes over 1 h. All signals were analyzed using a PhosphorImager, and lane loading differences were normalized.

[3] = system: VEGF-induced CTGF mRNA expression; assay: Effect on VEGF-induced CTGF mRNA expression in BRPC; assay type: cell-based, bovine; settings: for effect on VEGF-induced CTGF mRNA expression: pretreatment GF 109203X 1 μM or PD98059 20 μM
Description: as §4
(§5) I) Analysis of CTGF mRNA Half-life—CTGF mRNA half-life experiments were carried out using BREC and BRPC. […] Transcription was inhibited by the addition of actinomycin D (5 μg/ml).

[4] = system: VEGF-induced CTGF mRNA expression; assay: Effect on VEGF-induced CTGF mRNA expression in BREC; assay type: cell-based, bovine
Description: as §4, §5

[5] = biological target: Flt1 (VEGFR1) (bovine); assay: cell-based or functional assay
[6] = biological target: KDR/Flk1 (VEGFR2) (bovine); assay: cell-based or functional assay
[7] = biological target: T1, Flt1 (Bos taurus, UniProt F1MDD9); assay: Immunoblot of Flt1 immunoprecipitates from BRPC (phosphotyrosine, PI3-kinase p85); assay type: cell-based, bovine
T1 construct: endogenous in cells; host or cells: primary bovine retinal pericytes (BRPC)
T1 sequence (F1MDD9 1-1251): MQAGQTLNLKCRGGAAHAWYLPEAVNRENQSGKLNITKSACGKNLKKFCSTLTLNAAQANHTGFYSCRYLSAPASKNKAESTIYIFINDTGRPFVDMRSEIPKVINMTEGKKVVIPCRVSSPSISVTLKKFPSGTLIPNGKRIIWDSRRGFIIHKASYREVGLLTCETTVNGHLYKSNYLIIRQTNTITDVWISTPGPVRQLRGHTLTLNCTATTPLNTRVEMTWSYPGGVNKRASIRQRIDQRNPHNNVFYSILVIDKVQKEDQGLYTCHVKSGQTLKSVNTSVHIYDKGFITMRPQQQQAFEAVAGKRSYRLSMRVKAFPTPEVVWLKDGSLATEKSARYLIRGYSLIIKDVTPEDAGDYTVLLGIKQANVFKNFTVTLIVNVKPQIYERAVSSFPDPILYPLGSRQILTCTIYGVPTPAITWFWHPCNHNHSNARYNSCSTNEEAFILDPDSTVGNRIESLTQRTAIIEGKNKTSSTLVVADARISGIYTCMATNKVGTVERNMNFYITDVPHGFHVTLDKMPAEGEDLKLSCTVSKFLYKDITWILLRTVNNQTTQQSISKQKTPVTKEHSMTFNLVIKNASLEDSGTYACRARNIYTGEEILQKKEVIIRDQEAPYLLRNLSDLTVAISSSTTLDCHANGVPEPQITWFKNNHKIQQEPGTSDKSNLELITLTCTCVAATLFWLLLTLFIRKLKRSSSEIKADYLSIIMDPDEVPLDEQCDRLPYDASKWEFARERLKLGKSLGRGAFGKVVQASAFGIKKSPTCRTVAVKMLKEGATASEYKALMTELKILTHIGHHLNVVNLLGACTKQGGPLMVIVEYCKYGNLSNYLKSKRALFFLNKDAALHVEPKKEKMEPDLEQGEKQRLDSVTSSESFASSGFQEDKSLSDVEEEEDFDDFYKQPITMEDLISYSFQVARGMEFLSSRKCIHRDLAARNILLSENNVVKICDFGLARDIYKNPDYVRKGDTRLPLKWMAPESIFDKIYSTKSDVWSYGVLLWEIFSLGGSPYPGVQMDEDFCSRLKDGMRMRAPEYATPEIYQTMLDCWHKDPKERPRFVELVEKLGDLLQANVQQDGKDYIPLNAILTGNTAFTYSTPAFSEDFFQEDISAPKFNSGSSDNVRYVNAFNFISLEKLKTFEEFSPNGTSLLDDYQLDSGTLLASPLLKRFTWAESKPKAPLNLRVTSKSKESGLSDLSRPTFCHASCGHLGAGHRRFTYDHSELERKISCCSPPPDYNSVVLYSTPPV
Description: (§6) D) Immunoprecipitation—Cells were washed three times with cold phosphate-buffered saline and solubilized in 200 μl of lysis buffer (1% Triton X-100, 50 mmol/liter HEPES, 10 mmol/liter EDTA, 10 mmol/liter sodium pyrophosphate, 100 mmol/liter sodium fluoride, 1 mmol/liter sodium orthovanadate, 1 μg/ml aprotinin, 1 μg/ml leupeptin, and 2 mmol/liter phenylmethylsulfonyl fluoride). After centrifugation at 12,000 rpm for 10 min, 1.0 mg of protein was subjected to immunoprecipitation. To clear the protein extract, protein A-Sepharose (20 μl of a 50% suspension) was added to the cell lysates, after which they were incubated for 1 h, followed by centrifugation and collection of the supernatant. A specific rabbit anti-KDR or Flt1 antibody was added and rocked at 4° C. for 2 h; 20 μl of protein A-Sepharose was then added, and the sample was rocked for another 2 h at 4° C. For denaturation, protein A-Sepharose antigen-antibody conjugates were separated by centrifugation, washed five times, and boiled for 3 min in Laemmli sample buffer.

[8] = biological target: Flt1 (Homo sapiens, UniProt P17948); settings: known value; cited from earlier work
[9] = system: Erk
Description: as §1

[10] = system: CTGF protein; settings: BRPC, 25 ng/ml, after 10 h
Description: as §1

[11] = system: Akt
Description: as §1

[12] = system: CTGF mRNA; assay: CTGF mRNA expression by Northern blot analysis in BRPC; assay type: cell-based, bovine; settings: for CTGF mRNA levels, maximum increase: 25 ng/ml, after 9 h
Description: as §2, §3, §4

[13] = biological target: T2, KDR (Bos taurus, UniProt A0AAA9SPC9); assay: Immunoblot of KDR immunoprecipitates from BREC (phosphotyrosine, PI3-kinase p85); assay type: cell-based, bovine
T2 construct: endogenous in cells; host or cells: primary bovine retinal endothelial cells (BREC)
Description: as §6, §1

[14] = cycloheximide 10 μg/ml, VEGF 25 ng/ml, 6 h
[15] = inhibitor pretreatment (wortmannin 100 nM), VEGF 25 ng/ml 6 h
[16] = VEGF 25 ng/ml + cycloheximide 10 μg/ml, 6 h

T2 sequence (A0AAA9SPC9 20-1356): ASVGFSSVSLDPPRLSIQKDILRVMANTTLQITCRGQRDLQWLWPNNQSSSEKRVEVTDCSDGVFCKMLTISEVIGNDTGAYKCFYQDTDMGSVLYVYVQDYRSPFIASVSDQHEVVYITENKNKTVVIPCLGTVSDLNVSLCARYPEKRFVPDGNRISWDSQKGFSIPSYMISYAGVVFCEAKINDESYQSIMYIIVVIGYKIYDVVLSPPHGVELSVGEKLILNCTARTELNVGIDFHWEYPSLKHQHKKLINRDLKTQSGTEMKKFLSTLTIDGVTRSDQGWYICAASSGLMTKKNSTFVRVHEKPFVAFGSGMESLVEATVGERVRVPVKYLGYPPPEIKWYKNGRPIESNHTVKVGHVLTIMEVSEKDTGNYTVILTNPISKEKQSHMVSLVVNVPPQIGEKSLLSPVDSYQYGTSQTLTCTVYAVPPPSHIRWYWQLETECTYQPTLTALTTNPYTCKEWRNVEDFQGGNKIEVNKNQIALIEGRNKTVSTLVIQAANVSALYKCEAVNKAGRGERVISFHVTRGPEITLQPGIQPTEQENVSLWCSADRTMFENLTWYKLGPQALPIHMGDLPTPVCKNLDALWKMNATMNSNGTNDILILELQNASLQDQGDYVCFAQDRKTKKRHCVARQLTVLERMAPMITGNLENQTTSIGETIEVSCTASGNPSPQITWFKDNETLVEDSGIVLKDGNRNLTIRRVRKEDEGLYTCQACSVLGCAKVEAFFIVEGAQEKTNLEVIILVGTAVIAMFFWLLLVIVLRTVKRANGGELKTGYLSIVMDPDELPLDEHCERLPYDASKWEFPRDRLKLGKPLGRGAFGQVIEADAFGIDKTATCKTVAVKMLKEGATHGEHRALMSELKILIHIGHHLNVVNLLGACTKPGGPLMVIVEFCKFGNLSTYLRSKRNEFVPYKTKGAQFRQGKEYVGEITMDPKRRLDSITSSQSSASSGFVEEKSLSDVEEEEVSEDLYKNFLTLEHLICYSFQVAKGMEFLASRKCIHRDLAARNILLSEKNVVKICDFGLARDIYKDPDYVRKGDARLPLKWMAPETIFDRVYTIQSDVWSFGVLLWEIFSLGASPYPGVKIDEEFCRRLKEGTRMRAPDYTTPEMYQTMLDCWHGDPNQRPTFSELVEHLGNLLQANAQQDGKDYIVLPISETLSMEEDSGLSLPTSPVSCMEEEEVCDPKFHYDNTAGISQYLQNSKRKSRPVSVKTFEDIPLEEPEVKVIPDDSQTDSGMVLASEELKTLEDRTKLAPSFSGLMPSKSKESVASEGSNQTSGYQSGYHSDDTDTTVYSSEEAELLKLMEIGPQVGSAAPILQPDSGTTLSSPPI
Flt1 (Homo sapiens, UniProt P17948), sequence (P17948 27-1338, species assumed): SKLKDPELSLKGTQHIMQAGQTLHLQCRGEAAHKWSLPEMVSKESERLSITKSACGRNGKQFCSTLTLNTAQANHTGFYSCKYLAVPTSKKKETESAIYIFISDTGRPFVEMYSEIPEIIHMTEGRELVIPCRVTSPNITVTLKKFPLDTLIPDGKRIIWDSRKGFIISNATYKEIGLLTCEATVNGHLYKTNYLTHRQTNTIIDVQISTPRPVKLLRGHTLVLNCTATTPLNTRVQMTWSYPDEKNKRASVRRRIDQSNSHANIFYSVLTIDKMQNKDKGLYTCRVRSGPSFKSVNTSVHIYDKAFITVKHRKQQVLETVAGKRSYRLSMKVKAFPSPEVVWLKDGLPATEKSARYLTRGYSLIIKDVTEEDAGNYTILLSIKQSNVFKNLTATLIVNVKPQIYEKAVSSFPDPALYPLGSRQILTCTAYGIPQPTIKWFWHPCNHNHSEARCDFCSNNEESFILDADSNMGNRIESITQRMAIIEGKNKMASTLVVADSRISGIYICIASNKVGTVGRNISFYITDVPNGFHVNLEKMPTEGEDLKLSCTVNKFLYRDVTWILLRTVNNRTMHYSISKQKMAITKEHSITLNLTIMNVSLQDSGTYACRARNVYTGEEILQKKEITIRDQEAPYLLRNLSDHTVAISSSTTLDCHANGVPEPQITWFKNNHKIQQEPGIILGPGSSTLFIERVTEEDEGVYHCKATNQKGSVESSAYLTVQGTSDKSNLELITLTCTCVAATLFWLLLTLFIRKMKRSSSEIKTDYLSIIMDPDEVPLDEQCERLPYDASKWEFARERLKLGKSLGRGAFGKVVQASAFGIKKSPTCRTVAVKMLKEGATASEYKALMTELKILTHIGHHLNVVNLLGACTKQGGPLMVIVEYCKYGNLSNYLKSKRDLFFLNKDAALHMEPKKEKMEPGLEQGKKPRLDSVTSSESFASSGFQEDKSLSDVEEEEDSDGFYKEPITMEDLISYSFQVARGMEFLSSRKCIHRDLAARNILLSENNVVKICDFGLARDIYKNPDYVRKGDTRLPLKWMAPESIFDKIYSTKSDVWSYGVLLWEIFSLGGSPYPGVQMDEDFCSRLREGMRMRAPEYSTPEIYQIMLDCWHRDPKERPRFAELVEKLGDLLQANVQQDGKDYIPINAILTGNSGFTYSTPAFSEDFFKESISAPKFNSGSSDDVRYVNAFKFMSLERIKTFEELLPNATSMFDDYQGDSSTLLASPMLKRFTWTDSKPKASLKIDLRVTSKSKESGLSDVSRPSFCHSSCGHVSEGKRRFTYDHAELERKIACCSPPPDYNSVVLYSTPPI

In the case of “TGF-β1: transforming growth factor-β1, from R & D Systems”, the “CTGF protein expression increase” value [1] is reported as 2.8±0.8 fold and the “CTGF mRNA levels increase (comparative study)” value [2] is reported as 3.3±0.5 fold.

For C[C@@H]1C[C@@H]([C@H](O)CC2CC(=O)NC(=O)C2)C(=O)[C@@H](C)C1 [Cycloheximide, cycloheximide], the “effect on VEGF-induced increase of CTGF mRNA” value [3, 14] was “did not prevent” and the “effect on VEGF-induced increase of CTGF mRNA” value [4, 14] was “did not prevent”.

For placenta growth factor (P1GF) (ligand), the CTGF mRNA (Northern blot, BRPC, 25 ng/ml P1GF, peak after 9 h) [5] was 1.9 fold.

For COC[C@H]1OC(=O)c2coc3c2[C@@]1(C)C1=C(C3=O)[C@@H]2CCC(=O)[C@@]2(C)C[C@H]1OC(C)=O [wortmannin], the “inhibition of the effects of VEGF on CTGF mRNA expression” value [3, 15] was 78±22% and the “inhibition of the effects of VEGF on CTGF mRNA expression” value [4, 15] was 88±6.5%.

In the case of “Vascular endothelial growth factor (VEGF) (ligand)”, the CTGF mRNA (Northern blot, BRPC, 25 ng/ml VEGF, maximum after 9 h) [5] is reported as 2 fold and the CTGF mRNA (Northern blot, BREC, 25 ng/ml VEGF, maximum after 6 h) [6] is reported as 3.1 fold.

In the case of CN(C)CCCn1cc(C2=C(c3c[nH]c4ccccc34)C(=O)NC2=O)c2ccccc21 [GF 109203X], the “effect on VEGF-induced CTGF mRNA expression” value ([3]; VEGF 25 ng/ml 6 h) is reported as “Neither GF 109203X nor PD98059 had significant effects” and the “effect on VEGF-induced CTGF mRNA expression” value ([4]; pretreatment GF 109203X 1 μM or PD98059 20 μM, VEGF 25 ng/ml 6 h) is reported as “Neither GF 109203X nor PD98059 had significant effects”.

With COc1cccc(-c2cc(=O)c3ccccc3o2)c1N [PD98059] the “effect on VEGF-induced CTGF mRNA expression” value ([3]; VEGF 25 ng/ml 6 h) was “Neither GF 109203X nor PD98059 had significant effects”.

With VEGF the “level of CTGF protein” value ([1]; 25 ng/ml, after 10 h) was “increased”, the “CTGF protein expression increase” value [1] was 2.5±0.4 fold and the “interactions of Flt1 and p85 subunit of PI3-kinase” value [7] was “increased”. For the same molecule, the “tyrosine phosphorylation of Flt1” value [7] was “increased”, the “CTGF mRNA levels, maximum increase” value ([2]; 25 ng/ml, after 6 h) was 3.1±0.70 fold and the “concentration of maximal increase of CTGF mRNA” value ([2]; 6 h of stimulation) was 25 ng/mL. For the same molecule, the “lowest concentration with significant increase of CTGF mRNA” value ([2]; 6 h of stimulation) was 0.25 ng/mL, the “CTGF mRNA increase with cycloheximide, compared with cycloheximide alone” value [2, 16] was 2.4±0.41 fold and the “CTGF mRNA levels increase (comparative study)” value [2] was 3.0±0.3 fold. For the same molecule, the Kd [8] was 0.01 to 0.1 nM, the “phosphorylation of Erk” value ([9]; BREC) was 5.8 fold and the Erk phosphorylation ([9]; BRPC) was “No effect”. For the same molecule, the “level of CTGF protein” value [10] was “increased”, the “phosphorylation of Akt” value ([11]; BREC) was 3.1 fold and the “phosphorylation of Akt” value ([11]; BRPC) was 2.6 fold. The “CTGF mRNA levels, maximum increase” value [12] was 2.0±0.22 fold, the “concentration of maximal increase of CTGF mRNA” value ([12]; 6 h of stimulation) was 25 ng/mL and the “lowest concentration with significant increase of CTGF mRNA” value ([12]; 6 h of stimulation) was 0.25 ng/mL. The “CTGF mRNA increase with cycloheximide, compared with cycloheximide alone” value [12, 16] was 2.5±0.40 fold, the “interactions of KDR and p85 subunit of PI3-kinase” value [13] was “promoted” and the “tyrosine phosphorylation of KDR” value [13] was “promoted”.

B1: P1GF: placenta growth factor, a Flt1 receptor-specific ligand, from R & D Systems (protein, UniProt P49763 19-221, looked up)
Placenta growth factor: LPAVPPQQWALSAGNGSSEVEVVPFQEVWGRSYCRALERLVDVVSEYPSEVEHMFSPSCVSLLRCTGCCGDENLHCVPVETANVTMQLLKIRSGDRPSYVELTFSQHVRCECRHSPGRQSPDMPGDFRADAPSFLPPRRSLPMLFRMEWGCALTGSQSAVWPSSPVPEEIPRMHPGRNGKKQQRKPLREKMKPERCGDAVPRR
With B1 the “interactions of Flt1 and p85 subunit of PI3-kinase” value [7] was “increased”, the “tyrosine phosphorylation of Flt1” value [7] was “increased” and the “CTGF mRNA levels after stimulation” value ([2]; 25 ng/ml) was “not affected”. For the same molecule, the “CTGF mRNA levels, maximum increase” value [12] was 1.9±0.30 fold, the “interactions of KDR and p85 subunit of PI3-kinase” value [13] was “not” and the “tyrosine phosphorylation of KDR” value [13] was “not”.
